In US8426447B2, “Spiro-tricyclic ring compounds as beta-secretase modulators and methods of use” (Amgen Inc., priority 2008, dated 2013):

Key:
BACE1 [1] = target: T1, BACE1 (Homo sapiens, UniProt P56817); assay: In Vitro Enzymatic BACE FRET (Fluorescence Resonance Energy Transfer) Assay; format: biochemical
In short: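 Run in 0.05 M acetate pH 4.2 with 10% DMSO final and 100 uM genapol detergent below its CMC. Reaction was started with 50 nM FRET peptide substrate (fluorophore and quencher flanking the BACE cleavage site), incubated one hour, stopped with Tris to neutral pH, and fluorescence read.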

BACE1 [2] = target: T1, BACE1; assay: In Vitro BACE Cell-based Assay (HEK cell assay): Aβ40 in conditioned medium of cells stably expressing Amyloid Precursor Protein, sandwich ELISA
In short: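 Read-out is time-resolved fluorescence of Aβ40 in supernatant, captured by pAb40 and detected with biotinylated 6E10 plus Streptavidin-Europium. Cells stably expressing APP received compounds for 24 h over 10 concentrations starting at 100 μM or 10 μM, final DMSO 0.1%.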

[3] = Table III, IC50's in uM ranges, read-out: BACE1 FRET assay
[4] = Table III, IC50's in uM ranges, read-out: HEK cell assay
[5] = Table II, read-out: BACE1 FRET assay
[6] = Table II, Aβ40, 24 h incubation, read-out: HEK cell assay
[7] = HEK cells, read-out: HEK cell assay
[8] = Table IV, class symbols, read-out: BACE1 FRET assay
[9] = Table IV, class symbols, read-out: HEK cell assay
[10] = in vitro BACE FRET enzyme assay, IC50 class symbols, read-out: BACE1 FRET assay
[11] = HEK cell-based assay, Aβ40 in conditioned medium, IC50 class symbols, read-out: HEK cell assay

T1 sequence (P56817 46-501, species assumed): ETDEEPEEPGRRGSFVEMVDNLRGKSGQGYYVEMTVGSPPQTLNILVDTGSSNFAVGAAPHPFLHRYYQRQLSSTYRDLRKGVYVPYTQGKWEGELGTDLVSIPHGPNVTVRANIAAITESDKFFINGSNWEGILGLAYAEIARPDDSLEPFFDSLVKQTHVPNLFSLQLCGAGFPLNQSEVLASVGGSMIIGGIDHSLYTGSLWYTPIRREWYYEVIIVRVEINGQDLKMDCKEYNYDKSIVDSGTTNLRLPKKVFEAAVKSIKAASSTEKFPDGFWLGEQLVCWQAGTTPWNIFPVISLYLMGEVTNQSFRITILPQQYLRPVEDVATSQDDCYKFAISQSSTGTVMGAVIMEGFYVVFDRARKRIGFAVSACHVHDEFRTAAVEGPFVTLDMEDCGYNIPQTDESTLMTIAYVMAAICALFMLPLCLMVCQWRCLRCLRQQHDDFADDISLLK

With NC1=N[C@]2(CO1)c1cc(Br)ccc1Oc1ccc(Oc3ccccn3)cc12 [compound 198, (4S)-2′-bromo-7′-(2-pyridinyloxy)spiro[1,3-oxazole-4,9′-xanthen]-2-amine] as the compound, how does the IC50 (BACE1 [1]; [3]) read?
Its IC50 is 0.1 to 1 µM.

What about the IC50 (BACE1 [2]; [4]) of the same compound?
The IC50 was 1 to 5 µM.

What does the source list for CC(C)(C)COc1ccc2c(c1)[C@]1(COC(N)=N1)c1cc(-c3ccoc3)ccc1O2 [Example 76, (4S)-2′-(2,2-dimethylpropoxy)-7′-(3-furanyl)spiro[1,3-oxazole-4,9′-xanthen]-2-amine]?
IC50 (BACE1 [1]; [5]): < 0.1 µM; IC50 (BACE1 [2]; [6]): 1 to 5 µM

CC(C)(C)COc1cc2c(cc1F)[C@]1(COC(N)=N1)c1cc(-c3cncnc3)ccc1O2 [compound 999] was tested. Which IC50 (BACE1 [1]; read-out: BACE1 FRET assay) did it give?
The IC50 was 1 to 5 µM.

And the IC50 (BACE1 [2]; read-out: HEK cell assay)?
Its IC50 is over 5 µM.

How did the IC50 (BACE1 [1]; [5]) turn out when COc1ccc(-c2ccc3c(c2)[C@@]2(COC(N)=N2)c2cc(OCC(C)(C)C)ccc2O3)cn1 [Example 87, (4S)-2′-(2,2-dimethylpropoxy)-7′-(6-methoxy-3-pyridinyl)spiro[1,3-oxazole-4,9′-xanthen]-2-amine] was run?
The IC50 was 0.1 to 1 µM.

And the IC50 (BACE1 [2]; [6])?
Its IC50 is 1 to 5 µM.

For COc1cc(-c2cc3c(cn2)Oc2ccc(-c4cccnc4F)cc2[C@@]32COC(N)=N2)ccn1 [compound 430], which IC50 (BACE1 [1]; read-out: BACE1 FRET assay) is on record?
The IC50 was under 0.1 µM.

And the IC50 (BACE1 [2]; [7])?
The IC50 was 0.1 to 1 µM.

How did the IC50 (BACE1 [1]; read-out: BACE1 FRET assay) turn out when CC(=O)c1ccccc1-c1ccc2c(c1)[C@@]1(COC(N)=N1)c1cc(OCC(C)(C)C)ccc1O2 [compound 974] was run?
Its IC50 is 0.1 to 1 µM.

And the IC50 (BACE1 [2]; read-out: HEK cell assay)?
The IC50 was 1 to 5 µM.

How did the IC50 (BACE1 [1]; [8]) turn out when NC1=N[C@@]2(CO1)c1cc(-c3cccnc3)ccc1Oc1ccc(-c3cnoc3)cc12 [compound 623] was run?
Its IC50 is under 0.1 µM.

And the IC50 (BACE1 [2]; [9])?
Its IC50 is under 0.1 µM.

What does the source list for COc1ccc2c(c1)C1(COC(N)=N1)c1cc(-c3cc(Cl)c(C)cc3F)ccc1O2 (stereo not shown) [Example 23, 2′-(5-chloro-2-fluoro-4-methylphenyl)-7′-methoxyspiro[1,3-oxazole-4,9′-xanthen]-2-amine]?
IC50 (BACE1 [1]; Table 1, read-out: BACE1 FRET assay): 1 to 5 µM; IC50 (BACE1 [2]; Table 1, Aβ40, 24 h incubation, read-out: HEK cell assay): > 5 µM

Which IC50 (BACE1 [1]; [10]) does the source give for CC(C)C[C@H]1CN(c2ccc3c(c2)[C@]2(COC(N)=N2)c2cc(-c4cccnc4)ccc2O3)CCO1 [compound 359] here?
The IC50 was 0.1 to 1 µM.

What about the IC50 (BACE1 [2]; [11]) of the same compound?
The IC50 was 0.1 to 1 µM.

Which results are given for CC(C)(C)COc1ccc2c(c1)[C@]1(COC(N)=N1)c1cc(-c3ccc(S(C)(=O)=O)cc3)ccc1O2 [compound 910]?
IC50 (BACE1 [1]; [8]): 1 to 5 µM; IC50 (BACE1 [2]; [9]): 1 to 5 µM

For NC1=N[C@@]2(CO1)c1cc(-c3cccnc3F)ccc1Oc1ccc(C3=CCOCC3)nc12 [compound 400], which IC50 (BACE1 [1]; [10]) is on record?
Its IC50 is under 0.1 µM.

What about the IC50 (BACE1 [2]; [11]) of the same compound?
The IC50 was under 0.1 µM.

NC1=N[C@@]2(CO1)c1cc(-c3cncnc3)ccc1Oc1cc(OCC(F)(F)F)c(F)cc12 [compound 987] was tested. Which IC50 (BACE1 [1]; read-out: BACE1 FRET assay) did it give?
The IC50 was over 5 µM.

And the IC50 (BACE1 [2]; read-out: HEK cell assay)?
Its IC50 is over 5 µM.

With CC1(C)C=C(c2cc3c(cn2)Oc2ccc(-c4cccnc4F)cc2[C@@]32COC(N)=N2)CCO1 [compound 435] as the compound, how does the IC50 (BACE1 [1]; BACE1 FRET assay (uM)) read?
The IC50 was under 0.1 µM.

And the IC50 (BACE1 [2]; HEK cell assay (uM), HEK cells)?
Its IC50 is under 0.1 µM.

How did the IC50 (BACE1 [1]; [5]) turn out when NC1=N[C@@]2(CS1)c1cc(Cl)ccc1Oc1ccc(-c3cncnc3)cc12 [Example 39, (4R)-2′-chloro-7′-(5-pyrimidinyl)spiro[1,3-thiazole-4,9′-xanthen]-2-amine] was run?
Its IC50 is 0.1 to 1 µM.

What about the IC50 (BACE1 [2]; [6]) of the same compound?
Its IC50 is over 5 µM.

COC(C)(C)COc1ccc2c(c1)[C@@]1(COC(N)=N1)c1cc(-c3cccnc3)cnc1O2 [compound 983] was tested. Which IC50 (BACE1 [1]; read-out: BACE1 FRET assay) did it give?
Its IC50 is under 0.1 µM.

And the IC50 (BACE1 [2]; read-out: HEK cell assay)?
The IC50 was under 0.1 µM.

CC(C)(C)CCc1ccc2c(c1)[C@@]1(COC(N)=N1)c1cc(-c3cccnc3)cnc1O2 [compound 161] was tested. Which IC50 (BACE1 [1]; [3]) did it give?
The IC50 was under 0.1 µM.

And the IC50 (BACE1 [2]; [4])?
The IC50 was under 0.1 µM.

How did the IC50 (BACE1 [1]; [8]) turn out when CC(C)(C)COc1ccc2c(c1)[C@]1(COC(N)=N1)c1cc(-c3cccnc3F)cnc1O2 [compound 871] was run?
The IC50 was under 0.1 µM.

And the IC50 (BACE1 [2]; [9])?
Its IC50 is 0.1 to 1 µM.

What does the source list for CC1(COc2cnc3c(c2)[C@]2(COC(N)=N2)c2cc(-c4ccccc4Cl)ccc2O3)COC1 [compound 414]?
IC50 (BACE1 [1]; [10]): < 0.1 µM; IC50 (BACE1 [2]; [11]): 0.1 to 1 µM

How did the IC50 (BACE1 [1]; [8]) turn out when CC(C)(C)COc1ccc2c(c1)[C@]1(COC(N)=N1)c1cc(-c3cnc(Cl)nc3)ccc1O2 [compound 881] was run?
The IC50 was under 0.1 µM.

What about the IC50 (BACE1 [2]; [9]) of the same compound?
Its IC50 is 0.1 to 1 µM.

Which IC50 (BACE1 [1]; read-out: BACE1 FRET assay) does the source give for CC1(COc2cnc3c(c2)[C@]2(COC(N)=N2)c2cc(-c4ccccc4)ccc2O3)COC1 [compound 459] here?
Its IC50 is under 0.1 µM.

What about the IC50 (BACE1 [2]; [7]) of the same compound?
Its IC50 is under 0.1 µM.

Which results are given for CC(C)(F)COc1cnc2c(c1)[C@]1(COC(N)=N1)c1cc(C#CC3CC3)ccc1O2 [compound 382]?
IC50 (BACE1 [1]; [10]): < 0.1 µM; IC50 (BACE1 [2]; [11]): < 0.1 µM

With NC1=N[C@@]2(CO1)c1cc(-c3cc(Cl)ccc3F)ccc1Oc1cnc(C3=CCOCC3)cc12 [compound 424] as the compound, how does the IC50 (BACE1 [1]; read-out: BACE1 FRET assay) read?
Its IC50 is under 0.1 µM.

And the IC50 (BACE1 [2]; [7])?
Its IC50 is under 0.1 µM.

What does the source list for NC1=N[C@]2(CO1)c1cc(OCC(O)(C(F)(F)F)C(F)(F)F)ccc1Oc1ccc(-c3cccnc3)cc12 [compound 894]?
IC50 (BACE1 [1]; [8]): < 0.1 µM; IC50 (BACE1 [2]; [9]): 0.1 to 1 µM

Which results are given for NC1=N[C@]2(CO1)c1cc(/C=C/C(=O)O)ccc1Oc1ccc(-c3cncnc3)cc12 [compound 948]?
IC50 (BACE1 [1]; read-out: BACE1 FRET assay): 0.1 to 1 µM; IC50 (BACE1 [2]; read-out: HEK cell assay): > 5 µM

Which IC50 (BACE1 [1]; read-out: BACE1 FRET assay) does the source give for NC1=N[C@]2(CO1)c1cc(CC(=O)O)ccc1Oc1ccc(-c3cncnc3)cc12 [compound 751] here?
Its IC50 is 0.1 to 1 µM.

And the IC50 (BACE1 [2]; read-out: HEK cell assay)?
Its IC50 is over 5 µM.

Which results are given for CC(C)OCCOc1ccc2c(c1)[C@]1(COC(N)=N1)c1cc(-c3cccnc3)ccc1O2 [compound 181]?
IC50 (BACE1 [1]; [3]): < 0.1 µM; IC50 (BACE1 [2]; [4]): 0.1 to 1 µM
